Source: PubChem BioAssay (NCI)
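Cultured in 96-well plates, cells were exposed to test compound for 48 hours across five concentrations. The concentration for 50% growth inhibition is given as GI50. The concentration for full growth arrest is given as TGI.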

Tests used:
Test in all cases: NCI tumour cell line growth inhibition, 48 h
COLO 205 colon = test system: COLO 205 colon
RXF 393 renal = test system: RXF 393 renal
SNB-75 CNS = test system: SNB-75 CNS
MDA-MB-231 breast = test system: MDA-MB-231 breast
SF-295 CNS = test system: SF-295 CNS
NCI-H23 lung = test system: NCI-H23 lung
ACHN renal = test system: ACHN renal
MALME-3M melanoma = test system: MALME-3M melanoma
OVCAR-3 ovarian = test system: OVCAR-3 ovarian
HL-60(TB) leukemia = test system: HL-60(TB) leukemia

SMILES | TGI (COLO 205 colon) [µM] | TGI (RXF 393 renal) [µM] | TGI (SNB-75 CNS) [µM] | TGI (MDA-MB-231 breast) [µM] | TGI (SF-295 CNS) [µM] | TGI (NCI-H23 lung) [µM] | TGI (ACHN renal) [µM] | TGI (MALME-3M melanoma) [µM] | TGI (OVCAR-3 ovarian) [µM] | TGI (HL-60(TB) leukemia) [µM] | GI50 (HL-60(TB) leukemia) [µM] | GI50 (COLO 205 colon) [µM] | GI50 (SNB-75 CNS) [µM] | GI50 (SF-295 CNS) [µM] | GI50 (MALME-3M melanoma) [µM] | GI50 (OVCAR-3 ovarian) [µM]
COc1ccc(OC)c2cc(Cc3ccc(N(C)C)cc3)c(=O)c(Cc3ccc(N(C)C)cc3)cc12 | > 100 | > 100 | > 100 | > 100 | > 100 | > 100 | > 100 | > 100 | > 100 |  |  |  |  |  |  | 
COc1cc2ccnc3c2c(c1O)N(C)C=C3 | > 63.1 | 30 | 38.8 | > 71.1 | 28.6 | 37.5 | 27.6 | 21.7 | 17.8 |  |  |  |  |  |  | 
CSC1SCC2C(=O)N(C)C3(CC3C)C(=O)OCC(NC(=O)c3nc4ccccc4cc3O)C(=O)NC(C)C(=O)N(C)C1C(=O)N(C)C1(CC1C)C(=O)OCC(NC(=O)c1nc3ccccc3cc1O)C(=O)NC(C)C(=O)N2C (centres undefined) | < 0.0001 | < 0.0001 | < 0.0001 |  |  | < 0.0001 | > 100 |  | < 0.0001 | < 0.0001 |  |  |  |  |  | 
O=C(NCCO)c1ccc(Cl)cc1 |  | > 100 | > 100 | > 100 | > 100 | > 100 | > 100 | > 100 | > 100 |  |  |  |  |  |  | 
COc1ccc2c(c1)CCc1c-2n(CCN(C)C)c2ccc(OC)cc12 | > 100 |  | 76.5 | > 100 | > 100 | 50.2 | > 100 | 53.5 | > 100 |  |  |  |  |  |  | 
CSc1ncc2c(n1)-c1ccccc1OC2N1CCCC1 (centres undefined) | > 100 | > 100 | > 100 | > 100 | > 100 | > 100 | > 100 |  | > 100 | > 100 |  |  |  |  |  | 
COC(=O)[C@@H]1N2C(=S)N(c3ccccc3)C(=O)[C@H]2SC1(C)C | > 100 | > 100 | > 100 | > 100 | > 100 | > 100 | > 100 |  | > 100 |  |  |  |  |  |  | 
COC(OC)C(O)C1OC=CC1n1cnc2c(N)ncnc21 (centres undefined) | > 100 | > 100 | > 100 | > 100 | > 100 | > 100 | > 100 |  | > 100 |  |  |  |  |  |  | 
Cc1cc(S(=O)(=O)Nc2nc(N)nc(N3N=CCC3C)n2)c(S)cc1Cl (centres undefined) | > 10 | > 10 | > 10 |  | > 10 | > 10 | > 10 | > 10 | > 10 | > 10 |  |  |  |  |  | 
COC(=O)C(COC(=O)/C=C/c1ccc(OC(C)=O)c(OC(C)=O)c1)OC(=O)/C=C/c1ccc(OC(C)=O)c(OC(C)=O)c1 (centres undefined) | 30 | 25.8 |  | 35.6 | 33.2 | 71.8 | 27.8 | 45.6 | 29.9 |  |  |  |  |  |  | 
C=C1C[C@]23C[C@@]1(O)CC[C@H]2[C@@]12C=C[C@H](O)[C@@](C)(C(=O)O1)[C@H]2[C@@H]3C(=O)O | > 100 | > 100 | > 100 |  | > 100 | > 100 |  | > 100 | > 100 | > 100 |  |  |  |  |  | 
CSCCC(NC(=O)OC(C)(C)C)C(=O)NCCNc1ccc(NCCNC(=O)C(CCSC)NC(=O)OC(C)(C)C)c2c1C(=O)c1ccccc1C2=O (centres undefined) | 5.41 | 52.8 | 8.54 | 8.54 | 21.1 | 15.9 | 30.3 | 9.35 | 15.6 |  |  |  |  |  |  | 
O=c1[nH]nc(Cc2ccc(Cl)cc2)n1O | > 100 | > 100 |  | > 100 | > 100 | > 100 | > 100 | > 100 | > 100 | > 100 |  |  |  |  |  | 
O=C1[C@@H]2Cc3c([nH]c4ccccc34)C(C3CCCCC3)N2C(=O)[C@@H]2CCCN12 (some centres undefined) | 42.9 | > 100 |  | 50.2 | 61.1 | > 100 | > 100 | 51.1 | 51.7 | 59.2 |  |  |  |  |  | 
O=C(NCCNCCO)N/N=C/c1ccc(Cl)cc1 | > 100 |  | > 100 | > 100 | > 100 | > 100 | > 100 | > 100 | > 100 | > 100 |  |  |  |  |  | 
COc1c/c(=C2/C=c3ccccc3=N2)[nH]/c1=C/c1[nH]c(C)cc1C | 1.26 |  | > 100 |  | 0.628 |  |  | 1.62 | 1.02 | 2.77 | 0.05 | 0.0659 | 0.108 | 0.149 | 0.277 | 0.046
